Data: PMC4596688, “Structural determinants of nuclear export signal orientation in binding to exportin CRM1” (eLife, 2015)
Read-outs that look alike come from different tables or passages of the source.

How the values were obtained:
CRM1 = CRM1 (Homo sapiens, UniProt O14980); test: Competition differential bleaching assay monitored by microscale thermophoresis instrument (MBP-NES vs FITC-PKI^NES); type: binding; conditions: brackets = 68.3% confidence interval
Text: To first investigate whether features of the sequence such as spacings between hydrophobic residues and placement of the ΦXΦ motif are critical in determining directionality of NES binding, we reversed the sequence of the hRio2^NES ([…]) to generate hRio2^NES-R ([…]). We also reversed CPEB4^NES ([…]) to generate CPEB4^NES-R ([…]). Both reversed peptides match the class 1a NES pattern and were predicted to bind CRM1 like the PKI^NES, which is another class 1a NES. Binding affinities of NES peptides to CRM1 were measured in competition differential bleaching experiments using FITC-PKI^NES as a fluorescent probe, MBP-NESs as competitors and monitored with a microscale thermophoresis instrument (Figure 4, Figure 4—figure supplement 1). Wild-type NESs MBP-hRio2^NES and MBP-CPEB4^NES bind CRM1 with KDs of 2200 nM [1600,2900] and 590 nM [400,840], respectively (Figure 4B). The ranges in brackets represent the 68.3% confidence intervals as calculated using F-statistics and error-surface projection method ([Bevington and Robinson, 1992]). […] All of the NES peptides were also cloned into EYFP-NLS-NES fusions and tested for nuclear export activity in HeLa cells.
Differential bleaching was used as a parameter to monitor binding of MBP-NES proteins to CRM1. In short, we observed that the fluorophore reporter attached to PKI^NES (FITC) underwent a reproducible time-dependent bleaching when exposed to excitation light (Figure 4—figure supplement 2). Furthermore, this phenomenon was concentration-dependent, that is, the bleaching was accelerated when the FITC-PKI^NES probe was exposed to increasing concentrations of CRM1. […] The differential bleaching can be counteracted by titrating of mixture of FITC-PKI^NES and CRM1 with a known competitor, MBP-PKI^NES, which competes directly with the fluorescent probe for the NES binding groove in CRM1. A sigmoidal appearance of the binding and competition isotherms is observed when differential bleaching, quantified as the average fluorescence at a time after bleaching normalized by the averaged fluorescence just after the beginning of bleaching, is plotted vs titrant concentration in a semilog graph (see Figure 4).This illustrates that this bleaching behavior can be described as a two-state system where unbound probe and CRM1-bound probe bleach at different but specific rates, and that these quantities report on the populations of bound and unbound FITC-PKI^NES. A detailed description of the data-fitting procedures will be described in manuscript in preparation by C.A.B. For error reporting, we used F-statistics and error-surface projection method to calculate the 68.3% confidence intervals of the fitted data ([Bevington and Robinson, 1992]). While error reporting using the error surface projection method is relatively uncommon, the ranges more accurately represent the true confidence intervals given the observed noise in the performed set of experiments because they explicitly account for the ability of the fitting algorithm to compensate for fitting defects by modifying correlated parameters. Thus, they provide better evaluation of the fitted data than other, more commonly used methods (e.g., error estimations from the parametric variance-covariance matrix).
All proteins used were subjected to an extra gel filtration step and dialysis overnight in TB buffer with 15% glycerol to remove possible aggregation and ensures buffer matching. The FITC-PKI^NES peptide (FITC-[…]) was chemically synthesized by GenScript, NJ and dissolved in the TB buffer with 15% glycerol. For the direct titration, ^HsCRM1 was serially diluted from 40 μM to 1.2 nM and incubated with mixture of 120 μM ^ScRan-GTP and 40 nM FITC-PKI^NES in 1:1 vol to a total volume of 20 μl, and incubated for 1 hr in the dark at room temperature. […]

human CRM1 = test: In vitro CRM1-NES pull-down binding assay (immobilized GST-NES); conditions: immobilized GST-PKI^NES mutants, purified CRM1 and RanGTP; 2.5 μM HsCRM1, 7.5 μM ScRanGTP, 30 min 4°C; Coomassie-stained SDS/PAGE
Procedure: After affinity purification, ^ScRan was loaded with GTP (incubated with molar excess of ethylenediaminetetraacetic acid (EDTA) for 30 min on ice followed by incubation with excess GTP and MgOAC for 30 min at room temperature) and then purified by ion exchange chromatography (HiTrap SP, GE Healthcare Life Sciences). NESs were cloned into the pGEX-TEV vector ([Chook and Blobel, 1999]), purified, and immobilized on glutathione Sepharose beads (GE Healthcare Life Sciences) in TB buffer described above containing 15% glycerol. 2.5 μM ^HsCRM1 and 7.5 μM ^ScRanGTP were added to ∼10 μg of immobilized GST-NESs in TB buffer in total volumes of 200 μl for 30 min at 4°C. Unbound proteins were washed extensively with TB buffer and bound proteins on the Sepharose beads were separated by sodium dodecyl sulfate polyacrylamide gel electrophoresis (SDS/PAGE) and visualized with Coomassie Blue staining. All binding assays were performed in triplicates. To compare the relative intensities of CRM1 bands to yield an estimate of binding activities of various NES mutants, SDS/PAGE gels were dried and scanned with an Epson V300 scanner and the images analyzed with ImageJ software. CRM1 band intensities were corrected for differences in GST-NESs band intensities and normalized to wild-type control intensity in each set of mutations. Corrected relative CRM1 band intensities were plotted as histograms with standard errors with GraphPad Prism.
To test putative minus NESs identified from the Dbase data set, 5 μM ^HsCRM1 with or without 15 μM ^ScRanGTP were used instead. Putative NESs that show no CRM1 binding were expressed in larger scale and purified by size-exclusion chromatography to assess their aggregation states. They were also subjected to intact mass determination by mass spectroscopy to ensure that the GST-NES proteins were not degraded.

[1] = competition titration, MBP-NES 100 μM to 3 nM, 40 nM FITC-PKI^NES probe, 300 nM HsCRM1, 120 μM ScRan-GTP, mixed 1:1, TB buffer 15% glycerol, 0.05% Tween-20, 1.5 hr room temperature, triplicate titrations, read-out: KD (dissociation constant of NES binding to CRM1)
[2] = Figure 4—figure supplement 1, shorter hRio2^NES (without C-terminal lysine and glycine) and CPEB4^NES (without C-terminal methionine and arginine) constructs, competition differential bleaching as E1, read-out: KD of shorter NES constructs binding to CRM1

Sequence of CRM1 (O14980 whole entry, other chains not shown): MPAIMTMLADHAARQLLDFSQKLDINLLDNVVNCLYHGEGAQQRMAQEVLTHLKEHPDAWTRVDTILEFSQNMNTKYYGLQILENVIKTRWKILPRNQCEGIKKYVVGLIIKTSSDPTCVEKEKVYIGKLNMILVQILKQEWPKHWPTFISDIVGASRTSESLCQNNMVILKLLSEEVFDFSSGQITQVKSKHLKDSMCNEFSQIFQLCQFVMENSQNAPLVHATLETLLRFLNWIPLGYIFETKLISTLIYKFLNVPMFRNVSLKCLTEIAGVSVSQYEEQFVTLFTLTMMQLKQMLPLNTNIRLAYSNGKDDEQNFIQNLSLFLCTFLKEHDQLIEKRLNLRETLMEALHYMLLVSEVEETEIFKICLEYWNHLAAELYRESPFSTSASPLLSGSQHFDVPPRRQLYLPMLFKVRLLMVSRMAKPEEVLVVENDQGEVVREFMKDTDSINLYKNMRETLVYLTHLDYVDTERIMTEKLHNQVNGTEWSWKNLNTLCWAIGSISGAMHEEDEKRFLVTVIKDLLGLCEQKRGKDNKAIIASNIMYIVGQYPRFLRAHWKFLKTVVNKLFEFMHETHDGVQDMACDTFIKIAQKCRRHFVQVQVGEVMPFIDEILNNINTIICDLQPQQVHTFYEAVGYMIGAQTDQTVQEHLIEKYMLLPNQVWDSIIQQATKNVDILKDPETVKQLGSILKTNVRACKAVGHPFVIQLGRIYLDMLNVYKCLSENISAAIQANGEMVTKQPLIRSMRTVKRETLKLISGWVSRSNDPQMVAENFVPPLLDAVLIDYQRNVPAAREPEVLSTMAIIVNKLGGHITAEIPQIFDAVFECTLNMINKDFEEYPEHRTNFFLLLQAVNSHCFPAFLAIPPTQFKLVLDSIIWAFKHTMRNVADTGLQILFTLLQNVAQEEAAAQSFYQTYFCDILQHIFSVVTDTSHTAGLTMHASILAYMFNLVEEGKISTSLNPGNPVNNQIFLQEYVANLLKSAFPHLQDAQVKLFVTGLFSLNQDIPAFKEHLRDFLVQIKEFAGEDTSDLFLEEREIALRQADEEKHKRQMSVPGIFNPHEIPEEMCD

Substance	Kd (CRM1; [1]) [nM]	Kd (CRM1; [2]) [nM]	CRM1 binding in pull-down assay (human CRM1)
GGSYGKIEELAQNFETMEFSR [hRio2^NES-R]	2400		
GGSY^389RSFEMTEFNQALEEI^403 [hRio2^NES, nuclear export signal of hRio2 (residues 389-403), tested as MBP- or GST-fusion]	2200	1400	
IDLNELALKLAGL [PKI^NES-Flip1, PKI^NES with inverted LDI at the N-terminus, GST-fusion]			does not interact with CRM1
GGSY^379RTFDMHSLESSLIDI^393 [CPEB4^NES, nuclear export signal of CPEB4 (residues 379-393), tested as MBP- or GST-fusion]	590	1600	
GGSYRSFDMNELALKLAGLD [PKI^NES-Flip3, PKI^NES-Flip mutant with N-terminal FDM, GST-fusion]			graded increases in CRM1 binding
FDLNELALKLAGL [PKI^NES-Flip2, PKI^NES-Flip mutant with N-terminal FDL, GST-fusion]			graded increases in CRM1 binding
GGSYRMIDILSSELSHMDFTR [CPEB4^NES-R]	780		
